Results from patent publication US9113629B2, “4-amino-6-(4-substituted-phenyl)-picolinates and 6-amino-2-(4-substituted-phenyl)-pyrimidine-4-carboxylates and their use as herbicides” (DOW AGROSCIENCES LLC, priority 2013, dated 2015).
Like-named read-outs stand apart in the source and are kept apart here.

Legend:
[1] = tested on: Key Broadleaf Weed and Crop Species; assay: Post-emergent Test II herbicidal activity (Table 5); format: in vivo; settings: post-emergence, 336 h, 14 days after application; for pest or weed control at 70 g/ha: application rate 70 g ai/ha; for pest or weed control at 140 g/ha: application rate 140 g ai/ha
Summary of the method: (§1)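 Percent injury, 0 (none) to 100 (complete kill), was judged visually 14 d after spraying young plants at the first or second true leaf stage with compound in an acetone/DMSO aqueous carrier at 187 L/ha. Plants were kept in a greenhouse at 23–29 °C by day.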

[2] = tested on: Key Grass and Sedge Weeds as well as Grass Crops; assay: Post-emergent Test II herbicidal activity (Table 6); format: in vivo; settings: post-emergence, 336 h; for pest or weed control at 70 g/ha: 70 g ai/ha; for pest or weed control at 140 g/ha: 140 g ai/ha
Summary of the method: as §1

[3] = ABUTH: velvetleaf (Abutilon theophrasti), read-out: Visual Growth Reduction (%) 14 Days After Application, ABUTH
[4] = AMARE: redroot pigweed (Amaranthus retroflexus), read-out: Visual Growth Reduction (%) 14 Days After Application, AMARE
[5] = BRSNN: oilseed-rape, canola (Brassica napus), read-out: Visual Growth Reduction (%) 14 Days After Application, BRSNN
[6] = CHEAL: lambsquarters (Chenopodium album), read-out: Visual Growth Reduction (%) 14 Days After Application, CHEAL
[7] = EPHHL: wild poinsettia (Euphorbia heterophylla), read-out: Visual Growth Reduction (%) 14 Days After Application, EPHHL
[8] = HELAN: sunflower (Helianthus annuus), read-out: Visual Growth Reduction (%) 14 Days After Application, HELAN
[9] = VIOTR: wild pansy (Viola tricolor), read-out: Visual Growth Reduction (%) 14 Days After Application, VIOTR
[10] = CYPES: yellow nutsedge (Cyperus esculentus), read-out: Visual Growth Reduction (%) 14 Days After Application, CYPES
[11] = DIGSA: crabgrass (Digitaria sanguinalis), read-out: Visual Growth Reduction (%) 14 Days After Application, DIGSA
[12] = ECHCG: barnyardgrass (Echinochloa crus-galli), read-out: Visual Growth Reduction (%) 14 Days After Application, ECHCG
[13] = ORYSA: rice (Oryza sativa), crop, read-out: Visual Growth Reduction (%) 14 Days After Application, ORYSA
[14] = SETFA: giant foxtail (Setaria faberi), read-out: Visual Growth Reduction (%) 14 Days After Application, SETFA
[15] = SORVU: grain sorghum (Sorghum vulgare), read-out: Visual Growth Reduction (%) 14 Days After Application, SORVU
[16] = TRZSS (wheat, Triticum aestivum), crop, read-out: Visual Growth Reduction (%) 14 Days After Application, TRZSS
[17] = ZEAMX: maize, corn (Zea mays), crop, read-out: Visual Growth Reduction (%) 14 Days After Application, ZEAMX

Nc1c(F)c(-c2ccc(I)cc2)nc(C(=O)O)c1Cl [Compound 45, 4-amino-3-chloro-5-fluoro-6-(4-iodophenyl)picolinic acid]
95 to 100%: pest or weed control at 70 g/ha [1, 3] | pest or weed control at 140 g/ha [1, 3] | pest or weed control at 70 g/ha [1, 4] | pest or weed control at 140 g/ha [1, 4] | pest or weed control at 70 g/ha [1, 5] | pest or weed control at 140 g/ha [1, 5] | pest or weed control at 70 g/ha [1, 6] | pest or weed control at 140 g/ha [1, 6] | pest or weed control at 70 g/ha [1, 7] | pest or weed control at 140 g/ha [1, 7] | pest or weed control at 70 g/ha [1, 8] | pest or weed control at 140 g/ha [1, 8] | pest or weed control at 140 g/ha [1, 9] | pest or weed control at 140 g/ha [2, 10] | pest or weed control at 70 g/ha [2, 12] | pest or weed control at 140 g/ha [2, 12] | pest or weed control at 140 g/ha [2, 15] | pest or weed control at 140 g/ha [2, 17]
85 to 94%: pest or weed control at 70 g/ha [1, 9] | pest or weed control at 70 g/ha [2, 10] | pest or weed control at 70 g/ha [2, 11] | pest or weed control at 140 g/ha [2, 11] | pest or weed control at 70 g/ha [2, 14] | pest or weed control at 140 g/ha [2, 14] | pest or weed control at 70 g/ha [2, 17]
75 to 84%: pest or weed control at 140 g/ha [2, 16]
45 to 59%: pest or weed control at 70 g/ha [2, 13]
60 to 74%: pest or weed control at 140 g/ha [2, 13] | pest or weed control at 70 g/ha [2, 15] | pest or weed control at 70 g/ha [2, 16]
